Experiments:
LNCaP tumor = assay: SPECT/CT using LNCaP tumor-transplanted mouse; format: in vivo
Method: (§1) LNCaP tumor-implanted mice prepared by the method described above were administered saline solutions (1.9 to 3.0 MBq, 150 μL) of [^111In]In-PSMA-DA1 or [^111In]In-PSMA-DB from the tail vein. SPECT/CT was performed 24 and 48 hours after administration with FX3300 pre-clinical imaging system, which is manufactured by Gamma Medica-Ideas. Imaging was performed using a pinhole collimator with a diameter of 1.0 mm at a rotation radius of 35 mm, a projection time of 70 seconds, and the number of projections of 32 times under isoflurane anesthesia. After SPECT, CT (Tube voltage: 60 kV, Tube current: 350 μA) was performed. Image reconstruction was performed on the projection data of SPECT through three-dimensional ordered subset expectation maximization method (8 subsets, 5 iterations).
In the figure, the part indicated by the arrow is the location of the tumor, and the part indicated by the circle is the location of the kidney. The higher the SUV, the higher the radioactivity accumulation. […]
as §1, with “SPECT/CT” for “LNCaP tumor-implanted mice prepared by the method described above were administered saline solutions (1.9 to 3.0 MBq, 150 μL) of [^111In]In-PSMA-DA1 or [^111In]In-PSMA-DB from the tail vein. SPECT/CT”, “24, 48,” for “24”, “96” for “48”

[1] = target: T1, plasma albumin (mouse plasma) (Mus musculus, UniProt P07724); assay: Evaluation of binding to albumin (mouse plasma); settings: for radioactivity in the eluate (in words): left to stand in mouse plasma
T1 construct: from tissue; host or cells: mouse plasma
T1 sequence (P07724 25-608): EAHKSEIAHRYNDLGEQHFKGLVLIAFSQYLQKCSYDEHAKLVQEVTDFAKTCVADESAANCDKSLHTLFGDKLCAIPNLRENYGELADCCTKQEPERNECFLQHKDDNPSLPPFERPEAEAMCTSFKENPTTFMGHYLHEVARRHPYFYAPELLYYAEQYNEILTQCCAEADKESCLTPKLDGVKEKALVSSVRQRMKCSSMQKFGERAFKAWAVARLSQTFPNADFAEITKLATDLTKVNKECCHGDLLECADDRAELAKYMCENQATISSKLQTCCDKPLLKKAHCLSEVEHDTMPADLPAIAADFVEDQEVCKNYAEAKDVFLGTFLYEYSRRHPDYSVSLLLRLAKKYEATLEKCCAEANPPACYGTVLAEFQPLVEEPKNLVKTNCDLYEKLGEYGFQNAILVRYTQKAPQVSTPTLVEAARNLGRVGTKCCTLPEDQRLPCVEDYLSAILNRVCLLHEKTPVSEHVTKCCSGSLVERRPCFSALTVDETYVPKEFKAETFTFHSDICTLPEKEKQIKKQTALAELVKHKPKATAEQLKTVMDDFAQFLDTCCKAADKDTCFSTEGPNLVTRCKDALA
Method: A PBS solution (37 kBq, 50 μL) of [^111In]In-PSMA-DA1 or [^111In]In-PSMA-DB was added to 200 μL of PBS, mouse plasma, human plasma, or a human serum albumin (HSA) solution (45 mg/mL) in PBS, respectively, and the mixtures were allowed to stand at 37° C. for 10 minutes. Thereafter, the reaction liquids were added to a spin column ([…]; manufactured by Cytiva), and centrifuged at 1500×g at 4° C. for 2 minutes. After separation, the radioactivity for each of the column and the eluate was measured with a gamma counter.
When a compound to be evaluated binds to albumin to form a composite, the compound passes through the column because of the increased molecular size.
As in Example 1-1 described above, PBS, mouse plasma, human plasma, and human albumin were used to evaluate binding to albumin. Evaluation was carried out by the same experimental procedure and statistical method as in Example 1-1, except that a PBS solution (37 kBq, 50 μL) of [^111In]In-PtDA was used.
Thereafter, the reaction liquid was added to a spin column (Sephadex G-50; manufactured by Cytiva), and centrifuged at 1500×g at 4° C. for 2 minutes. After separation, the radioactivity of the column and the eluate was measured with a gamma counter.

[2] = 24 (and 48) hours after administration

SMILES | radioactivity accumulation at the LNCaP tumor in SPECT/CT (LNCaP tumor; [2]) | radioactivity accumulation at the kidney in SPECT/CT (LNCaP tumor; [2]) | radioactivity in the eluate ([1]; mouse plasma) [%] | radioactivity in the eluate (in words) [1] | radioactivity accumulation at the kidney in SPECT/CT (LNCaP tumor; 96 hours after administration)
O=C([O-])CN(Cc1cccc(C(=O)[O-])n1)C[C@H](Cc1ccc(NC(=O)[C@H](CCCCNC(=O)CCC(=O)NCCCC[C@H](NC(=O)N[C@@H](CCC(=O)O)C(=O)O)C(=O)O)NC(=O)CCCc2ccc(I)cc2)cc1)N(CC(=O)[O-])Cc1cccc(C(=O)[O-])n1.[111In+3] [[^111In]In-Octapa-2] | high radioactivity accumulation | also observed | – | – | –
O=C([O-])CN1CCN(C(CCC(=O)NCCCC[C@H](NC(=O)N[C@@H](CCC(=O)O)C(=O)O)C(=O)O)C(=O)[O-])CCN(CC(=O)[O-])CCN(C(CCC(=O)Nc2ccccc2)C(=O)[O-])CC1.[111In+3] (stereo partly drawn) [[^111In]In-PSMA-DB, reference compound] | lower than at the kidney | – | – | – | –
O=C(O)CC[C@H](NC(=O)N[C@@H](CCCCNC(=O)[C@H](Cc1ccc2ccccc2c1)NC(=O)[C@H]1CC[C@H](CNC(=O)CCC(C(=O)O)N2CCN(CC(=O)O)CCN(C(CCC(=O)N[C@@H](CCCCNC(=O)CCCc3ccc(I)cc3)C(=O)O)C(=O)O)CCN(CC(=O)O)CC2)CC1)C(=O)O)C(=O)O (stereo partly drawn) [[^111In]In-PSMA-NAT-DA1, metal not drawn] | significant radioactivity accumulation | also observed | – | significantly high | hardly observed

The next lines start with results.

radioactivity accumulation at the LNCaP tumor in SPECT/CT (LNCaP tumor; [2]) | radioactivity accumulation at the kidney in SPECT/CT (LNCaP tumor; [2]) | radioactivity in the eluate ([1]; mouse plasma) [%] | SMILES | radioactivity in the eluate (in words) [1] | radioactivity accumulation at the kidney in SPECT/CT (LNCaP tumor; 96 hours after administration)
significant radioactivity accumulation | High radioactivity accumulation | – | O=C([O-])CN1CCN(C(CCC(=O)NCCCC[C@H](NC(=O)N[C@@H](CCC(=O)O)C(=O)O)C(=O)O)C(=O)[O-])CCN(CC(=O)[O-])CCN(C(CCC(=O)N[C@@H](CCCCNC(=O)CCCc2ccc(I)cc2)C(=O)O)C(=O)[O-])CC1.[111In+3] (stereo partly drawn) [[^111In]In-PSMA-DA1] | significantly higher | –
high radioactivity accumulation | – | 67.2 | O=C([O-])CN1CCN(C(CCC(=O)NCCC(=O)N2Cc3ccccc3-c3c(nnn3CCOCCOCCOCCOCCC(=O)NCCCC[C@H](NC(=O)N[C@@H](CCC(=O)O)C(=O)O)C(=O)O)-c3ccccc32)C(=O)[O-])CCN(CC(=O)[O-])CCN(C(CCC(=O)N[C@@H](CCCCNC(=O)CCCc2ccc(I)cc2)C(=O)O)C(=O)[O-])CC1.[111In+3] (stereo partly drawn) [[^111In]In-PtDA] | – | –
